Measured values as given in ChEMBL document CHEMBL1629512, “Ipomotaosides A-D, resin glycosides from the aerial parts of Ipomoea batatas and their inhibitory activity against COX-1 and COX-2” (J Nat Prod, 2010).

Columns and labels:
[1] = biological target: T1, Prostaglandin G/H synthase 1 (Ovis aries, UniProt P05979); test: Inhibition of sheep COX1-mediated PGE2 production after 2 mins by liquid scintillation counting
T1 sequence (P05979 whole entry): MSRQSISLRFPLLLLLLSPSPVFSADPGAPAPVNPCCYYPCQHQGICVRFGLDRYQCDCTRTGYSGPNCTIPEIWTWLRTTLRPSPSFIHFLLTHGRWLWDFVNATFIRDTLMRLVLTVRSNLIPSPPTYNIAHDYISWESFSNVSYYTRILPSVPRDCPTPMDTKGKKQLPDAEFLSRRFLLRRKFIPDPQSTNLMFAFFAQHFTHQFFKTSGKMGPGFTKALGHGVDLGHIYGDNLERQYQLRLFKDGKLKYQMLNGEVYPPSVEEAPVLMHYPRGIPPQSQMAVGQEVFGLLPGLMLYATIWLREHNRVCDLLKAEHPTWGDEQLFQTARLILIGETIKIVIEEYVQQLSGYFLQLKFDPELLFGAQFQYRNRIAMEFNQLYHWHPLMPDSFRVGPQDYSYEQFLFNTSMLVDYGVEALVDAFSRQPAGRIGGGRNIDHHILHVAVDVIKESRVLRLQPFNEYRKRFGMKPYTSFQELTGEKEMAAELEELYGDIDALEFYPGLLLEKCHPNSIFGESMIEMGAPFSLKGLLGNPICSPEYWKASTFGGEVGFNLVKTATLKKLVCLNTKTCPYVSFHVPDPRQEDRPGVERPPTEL

[2] = biological target: T2, Prostaglandin G/H synthase 2 (Ovis aries, UniProt P79208); test: Inhibition of sheep COX2-mediated PGE2 production after 2 mins by liquid scintillation counting
T2 sequence (P79208 whole entry): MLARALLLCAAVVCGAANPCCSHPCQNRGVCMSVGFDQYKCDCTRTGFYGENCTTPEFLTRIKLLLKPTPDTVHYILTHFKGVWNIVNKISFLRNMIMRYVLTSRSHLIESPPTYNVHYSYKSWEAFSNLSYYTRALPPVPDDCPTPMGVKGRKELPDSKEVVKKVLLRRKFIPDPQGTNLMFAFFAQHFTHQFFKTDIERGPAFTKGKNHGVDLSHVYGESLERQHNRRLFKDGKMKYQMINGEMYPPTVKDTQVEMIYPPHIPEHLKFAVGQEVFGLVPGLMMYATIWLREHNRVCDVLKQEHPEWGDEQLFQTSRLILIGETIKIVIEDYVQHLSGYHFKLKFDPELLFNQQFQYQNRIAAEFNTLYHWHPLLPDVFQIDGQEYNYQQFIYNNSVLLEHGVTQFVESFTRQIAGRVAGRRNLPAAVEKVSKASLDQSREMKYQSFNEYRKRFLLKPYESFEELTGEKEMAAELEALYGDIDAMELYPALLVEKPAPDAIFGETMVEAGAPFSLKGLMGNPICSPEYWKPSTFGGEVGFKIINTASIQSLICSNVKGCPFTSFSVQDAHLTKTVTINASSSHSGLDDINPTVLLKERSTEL

Row | IC50 ([1]; read-out: IC50) | IC50 ([2]; read-out: IC50) | IC50 [1] | IC50 [2] | SMILES
1 | 9.3 µM | 14.5 µM | – | – | CCCCCCCCCCCC(=O)O[C@@H]1[C@@H](O)[C@@H](OC(=O)/C=C/c2ccccc2)[C@H](O[C@@H]2[C@@H](OC(=O)CCCCCCCCC)[C@@H](O)[C@H](O[C@@H]3[C@@H](O)[C@H]4OC(=O)CCCCCCCCC[C@H](CCCCC)O[C@@H]5O[C@H](C)[C@H](O)[C@H](O)[C@H]5O[C@@H]4O[C@H]3C)O[C@H]2C)O[C@H]1C [IPOMOTAOSIDE A]
2 | 132 µM | 147 µM | – | – | CCCCCCCCCCCC(=O)O[C@@H]1[C@@H](O)[C@@H](OC(=O)/C=C/c2ccccc2)[C@H](O[C@@H]2[C@@H](O)[C@@H](OC(=O)CCCCCCCCCCC)[C@H](O[C@@H]3[C@@H](O)[C@H]4OC(=O)CCCCCCCCC[C@H](CCCCC)O[C@@H]5O[C@H](C)[C@H](O)[C@H](O)[C@H]5O[C@@H]4O[C@H]3C)O[C@H]2C)O[C@H]1C [IPOMOTAOSIDE B]
3 | – | – | Not Active | Not Active | CCCCCCCCCCCC(=O)O[C@@H]1[C@@H](O)[C@@H](OC(=O)/C=C/c2ccccc2)[C@H](O[C@@H]2[C@@H](O)[C@@H](OC(=O)CCCCCCCCC)[C@H](O[C@@H]3[C@H]4OC(=O)CCCCCCCCC[C@H](CCCCC)O[C@@H]5O[C@H](C)[C@H](O)[C@H](O)[C@H]5O[C@H](O[C@H]3C)[C@@H]4O)O[C@H]2C)O[C@H]1C [IPOMOTAOSIDE C]
4 | – | – | Not Active | Not Active | CCCCCCCCCCCC(=O)O[C@@H]1[C@@H](O)[C@@H](OC(=O)/C=C/c2ccccc2)[C@H](O[C@@H]2[C@@H](OC(=O)CCCCCCCCC)[C@@H](O)[C@H](O[C@@H]3[C@H]4OC(=O)CCCCCCCCC[C@H](CCCCC)O[C@@H]5O[C@H](C)[C@H](O)[C@H](O)[C@H]5O[C@H](O[C@H]3C)[C@@H]4O)O[C@H]2C)O[C@H]1C [IPOMOTAOSIDE D]
